# From patent US20090074722A1, “Products and methods for treating PTP lar diseases” (MAX-PLANCK-GESELLSCHAFT ZUR, priority 1999, published 2009)
# Columns and labels:
# NBT II cells [1] = test: In vitro wound assay (migration of NBT II cells); type: cell-based, rat
# Experimental: FIGS. 1A and 1B show the migration of epithelial NBT II cells under varying conditions. […] Twenty-four hours after plating, the confluent cell monolayer was scratched as described in the Examples. EGF (100 ng/mL) or Ultroser G (2%) were added. Wound closure was documented by photography. The calibration bar indicates 80 pn. Migration Assays-For in vitro wound assays, NBT II cells were plated at a density of 7×10^4 cells/cm^2. After 24 hours the confluent monolayer was scratched with a pipette tip to create a cell free area, growth factors were added, and wound closure was documented by photography. For scatter assays, cells were plated at a cell density of 1×10^4 cells/cm^2. Growth factors were added after 24 hours, and the morphology of cells and the dispersion of small colonies were documented by photography. Quantification of migration was performed by counting single cells with fibroblastoid migration morphology compared to cells in groups with epithelial morphology in different, randomly chosen microscopic fields. 1000 cells per dish were counted. All migration assays were performed in triplicate. Tyrosine kinases (TK), mitogen-activated protein kinase (MAPK) or phosphatidylinositol-3-kinase (Pl3K), were inhibited by Genistein (250 μM; Biomol), added one hour before addition of the growth factors. As a control, the solvent DMSO was used. DNA synthesis was inhibited by the specific inhibitor of DNA polymerase, α Aphidicolin (1.5 μM; Serva) 1 hour before adding the growth factors. Migration of epithelial cells in tissue culture represents in many aspects a model system of the epithelial-mesenchymal transition ([…], et al. (1994) Int. Rev. Cytol. 155, 49-9). The rat bladder carcinoma cell line NBT II (Toyoshima, et al. (1971) J. Nat. Cancer Inst. 47, 979-985) was used, since certain growth factors and components of the extracellular matrix (ECM) induce migration of these cells (Valles, et al. (1990) Proc. Natl. Acad. Sci. USA 87, 1124-1128; Tchao, R. (1982) Cell Motil. 4, 333-341; Tucker, et al. (1990) Cancer Res. 50, 129-137).
# [2] = tested on: β-catenin and plakoglobin; test: Tyrosine phosphorylation of β-catenin and plakoglobin in migrating NBT II cells (immunoprecipitation, Western blot); type: cell-based, rat; conditions: pretreatment with 1 mM Na-orthovanadate
# Experimental: NBT II cells were plated at a density of 1×10^4 cells/cm^2. Twenty-four hours later growth factors were added to induce migration (EGF: 100 ng/mL; aFGF: 30 ng/mL including 50 μg/mL heparin; Ultroser G: 2%). Ninety minutes before lysis, Na-orthovanadate (1 mM) was added (right) or not (left). As a positive control, cells were treated for 10 minutes with pervanadate. After lysis the cadherin/catenin complex was immunoprecipitated and precipitates were separated by SDS-PAGE. Tyrosine phosphorylation levels were analyzed by Western blotting with an anti-phosphotyrosine antibody (top). The membranes were reprobed with specific antibodies to E-cadherin (middle) or the catenins (bottom) to assure equal amounts of precipitated proteins. Highly tyrosine phosphorylated β-catenin (as hereafter pervanadate treatment) was not efficiently immunodecorated in the reblot. Arrows indicate the proteins of interest. Molecular mass standards in kilodaltons are shown on the left.
# Transient Expression, Cell Lysis, and Immunoprecipitation—Transient transfection of human 293 embryonic kidney cells was performed as described (Chen, et al. (1987) Mol. Cell. Biol. 7, 2745-2752, hereby incorporated herein by reference in its entirety, including any drawings, figures, or tables). For biochemical analysis, NBT II cells were plated at a density of 1×10^4 cells/cm^2 at the day before lysis. […]
# [3] = tested on: free, uncomplexed β-catenin; test: Affinity precipitation of free β-catenin with GST-E-cadherin cytoplasmic fusion protein; type: cell-based, rat; conditions: EGF 100 ng/mL
# Experimental: NBT II cells were plated at a density of 1×10^4 cells/cm^2. Twenty-four hours later EGF (100 ng/mL) was added for the indicated time intervals. 30 minutes before lysis Na-orthovanadate (1 mM) was added. Subsequently affinity precipitations were performed with 5 μg of a GST/E-cadherin cytoplasmic protein or GST in a three-fold molar excess. Proteins were separated by SDS-PAGE, and the levels of free, uncomplexed β-catenin were analyzed by Western blotting with an anti-β-catenin-antibody (top). […] Note that in comparison to FIG. 2, cells were pretreated for only 30 minutes with Na-orthovanadate. Arrows indicate the proteins of interest. Molecular mass standards in kilodaltons are shown on the left.
# NBT II cells infected with the empty vector pLXSN (left) or human PTP LAR (right) were plated at 1×10^4 cells/cm^2 and stimulated after 24 h with EGF (100 ng/mL) for the indicated time intervals. Na-orthovanadate pretreatment was omitted to avoid irreversible inhibition of protein tyrosine phosphatase activity. Cells were lysed and in vitro associations were performed with 5 μg of the GST-E-cadherin cytoplasmic protein or GST in a three-fold molar excess. Proteins were separated by SDS-PAGE, and the levels of free, uncomplexed β-catenin were analyzed by Western blotting with an anti-β-catenin antibody (top). […] Arrows indicate the proteins of interest. […]
# NBT II cells [4] = test: Scatter assay of NBT II cells after EGF treatment; type: cell-based, rat; conditions: ectopic expression, about twice the PTP LAR expression of parental cells; EGF 100 ng/mL
# Experimental: FIGS. 7A and 7B show a scatter assay of NBT II pLXSN and NBT II hPTP LAR cells. In FIG. 7A, NBT II cells infected with the empty vector pLXSN (left) or human PTP LAR (right) were plated at 1×10^4 cells/cm^2 and stimulated 24 h later with EGF (100 ng/mL) as indicated. After 7 h, the migration morphology was documented by photography.
# To this end, 1000 cells per dish from randomly chosen microscopic fields were counted; assays were performed in triplicate. A cell was judged as a migrating cell when it had changed from a cobblestone-like, epithelial morphology to a migrating, fibroblastoid phenotype.
# Migration Assays—For in vitro wound assays, NBT II cells were plated at a density of 7×10^4 cells/cm^2. After 24 hours the confluent monolayer was scratched with a pipette tip to create a cell free area, growth factors were added, and wound closure was documented by photography. For scatter assays, cells were plated at a cell density of 1×10^4 cells/cm^2. Growth factors were added after 24 hours, and the morphology of cells and the dispersion of small colonies were documented by photography. Quantification of migration was performed by counting single cells with fibroblastoid migration morphology compared to cells in groups with epithelial morphology in different, randomly chosen microscopic fields. 1000 cells per dish were counted. All migration assays were performed in triplicate. […]
# NBT II cells [5] = test: Tumor formation in nude mice; type: in vivo, Swiss nude mice; conditions: NBT II hPTP LAR cells injected subcutaneously into flank, 2×10^6/50 μL
# Experimental: NBT II cells, infected with the empty vector pLXSN (filled triangle) or human PTP LAR (filled square), were injected (2×10^6/50 μL) subcutaneously into the flank region of Swiss nude mice. Tumor formation was monitored.
# Tumor formation in Nude Mice—NBT II cells were resuspended at a cell density of 2×10^6/50 μL in MEM and injected subcutaneously into the flank region of Swiss nude mice (IGR Villejuif, Paris, France). Tumor formation was monitored by measuring the width (W) and length (L) of the tumors with W<L. The tumor volume was calculated according to the formula (W^2×L×π/6). Assays were performed at least in triplicate.
# NBT II cells [6] = test: DNA-synthesis and proliferation rate of NBT II-hPTP LAR cell lines; type: cell-based, rat; conditions: ectopic expression in NBT II cells
# [7] = inhibition of PI3K or MAPK, concentration not given
compound,measurement,setting,value
C[C@@]1(CO)[C@H](O)CC[C@@]2(C)[C@H]1CC[C@H]1C[C@@H]3C[C@@]12CC[C@]3(O)CO [Aphidicolin],effect on cell migration (wound closure),"NBT II cells [1]; Aphidicolin 1.5 μM, added 1 hour before the growth factors, inhibition of DNA-synthesis",did not interfere with migration
O=c1c(-c2ccc(O)cc2)coc2cc(O)cc(O)c12 [Genistein],effect on cell migration (wound closure),"NBT II cells [1]; Genistein 250 μM, added one hour before the growth factors, inhibition of tyrosine kinases",completely abolished cell migration
[Na+].[Na+].[Na+].[O]=[V]([O-])([O-])[O-] [Na-orthovanadate],tyrosine phosphorylation of β-catenin and plakoglobin,[2],increased tyrosine phosphorylation
COc1cccc(-c2cc(=O)c3ccccc3o2)c1N [PD98059],effect on cell migration (wound closure),NBT II cells [1]; [7],completely abolished cell migration
O=c1cc(N2CCOCC2)oc2c(-c3ccccc3)cccc12 [ly295002],effect on cell migration (wound closure),NBT II cells [1]; [7],completely abolished cell migration
EGF: growth factor used to induce epithelial cell migration [reference compound],free pool of β-catenin,[3]; NBT II cells,increase of the free pool of β-catenin
hPTP LAR: full-length human PTP LAR ectopically expressed in NBT II cells by retroviral gene transfer (pLXSN),EMT and motility relative to vector-control infected cell lines (NBT II pLXSN),NBT II cells [4],about 40%
same,tumor growth in comparison to NBT II pLXSN cells,NBT II cells [5],significantly reduced tumor growth
same,tyrosine phosphorylation and increase of the free pool of β-catenin,"[3]; NBT II-hPTP LAR-expressing cells, no Na-orthovanadate","neither tyrosine phosphorylation, nor an increase in the free pool of β-catenin were detectable"
same,DNA-synthesis and proliferation rate,NBT II cells [6],not affected
